Measured values as given in patent publication US20150111933A1, “Deuterated Thiazolidinone Analogues as Agonists for Follicle Stimulating Hormone Receptor” (Merck Patent GmbH, priority 2012, published 2015).

How the values were obtained:
[1] = molecular target: T1, FSHR (Homo sapiens, UniProt P23945); experiment: EC50 of cyclic AMP production in CHO FSHR cells + EC20 FSH (HTRF); format: cell-based; conditions: Cho-FSHR-LUC-1-1-43 cells; for Emax: 1 h, read-out: EC50 of cAMP production (% effect); for Emax / EC50 of cAMP production (% effect): + EC20 FSH, % effect in brackets; for EC50: + EC20 FSH (0.265 pM), 200 μM IBMX, 1 h at 37° C., read-out: EC50 of cAMP production
T1 construct: expressed in transfected cells; host or cells: CHO (Cho-FSHR-LUC-1-1-43)
T1 sequence (P23945 18-695): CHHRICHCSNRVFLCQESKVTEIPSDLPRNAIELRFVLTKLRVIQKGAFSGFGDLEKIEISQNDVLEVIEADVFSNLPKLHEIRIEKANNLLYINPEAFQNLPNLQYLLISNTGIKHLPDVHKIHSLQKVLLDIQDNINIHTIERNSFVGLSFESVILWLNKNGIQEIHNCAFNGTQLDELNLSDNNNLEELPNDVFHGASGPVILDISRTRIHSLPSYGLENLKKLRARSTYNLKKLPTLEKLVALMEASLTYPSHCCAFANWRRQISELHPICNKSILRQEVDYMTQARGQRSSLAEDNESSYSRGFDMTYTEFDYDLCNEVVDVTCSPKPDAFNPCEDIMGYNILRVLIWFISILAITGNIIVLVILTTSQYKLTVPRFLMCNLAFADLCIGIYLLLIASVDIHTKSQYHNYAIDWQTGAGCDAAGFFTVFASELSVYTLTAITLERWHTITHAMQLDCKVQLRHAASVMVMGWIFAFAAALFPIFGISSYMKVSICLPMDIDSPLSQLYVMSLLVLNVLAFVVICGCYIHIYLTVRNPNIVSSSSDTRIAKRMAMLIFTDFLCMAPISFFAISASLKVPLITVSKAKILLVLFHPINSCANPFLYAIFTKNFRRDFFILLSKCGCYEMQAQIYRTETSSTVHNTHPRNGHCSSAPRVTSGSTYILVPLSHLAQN
Description: EC50 of Cyclic AMP Production in CHO FSHR Cells+EC20 FSH
2500 Cho-FSHR-LUC-1-1-43 cells were plated per well in 5 μL of phenol red free DMEM/F12+1% FBS. Cells were plated in 384 well, solid white low volume plates (Greiner 784075) by Multidrop. Cells were assayed by adding […] of 2×EC20 FSH/IBMX in DMEM/F12+0.1% BSA) by Multidrop to 2 μL of test compound stamped in 384 well plates (compounds are diluted 1:50). The final FSH concentration was 0.265 pM, and the final IBMX concentration was 200 μM. The compound plate map was as follows: Column 1: 2 μL of DMSO; Column 2: 2 μL of DMSO; Columns 3-12 and 13-24: 2 μL of test compound, diluted 1:4 in 100% DMSO, or 2 μL of FSH, diluted 1:4 in DMEM/F12+0.1% BSA. The starting concentration for FSH was 50 nM (final concentration was 0.5 nM). Furthermore, Column 23 contained 2 μL of EC100 FSH reference (100×) (diluted in DMEM/F12+0.1% BSA) at a final concentration of 0.5 nM, and Column 24 contained 2 μL of 1 mM AS707664/2 reference compound 2. 5 μL of compound+EC20 FSH mixture were transferred to cell plates (1:2 dilution into 5 μL of cell media) The plates were incubated at 37° C. for 1 h. 10 μL of mixed HTRF (CisBio #62AM4PEC) reagents were added per well and incubated at room temperature for 1 h. The plates were read on Envision using the cAMP HTRF—low volume 384 well protocol. The readout was the calculated fluorescence ratio (665 nm/620 nm).

[2] = Intrinsic clearance (Clint) in rat liver microsomes; format: in vitro ADME; conditions: 0.5 mg/mL protein, NADPH, up to 30 min, second value of human/rat; for microsomal CLint at 0.8 μM: rat, liver microsomes, pH 7.4, rat liver microsomes
Description: (§1) Intrinsic Clearance (Clint) Assay Protocol:
(§2) A Tecan Genesis workstation (RSP 150/8) was used for to perform the microsomal incubations. Analysis was carried out using a Waters ACQUITY UPLC system coupled to an ABSciex API3000 mass spectrometer. Data analysis was performed using Assay Explorer (Symyx).
(§3) 0.1 M potassium phosphate buffer pH 7.4 containing 1 mM MgCl2 15 mM NADPH in phosphate buffer 4.4 mg protein/mL liver microsomes in phosphate buffer acetonitrile 20% DMSO in water
(§4) Each experiment consists of 12 test and 2 reference compounds. The reference compounds are incubated as a cocktail. Dilution of test compounds was done in 2 steps from a 10 mM DMSO stock solution. First 4 μL stock solution was added to 196 μL of 20% DMSO in potassium phosphate buffer pH 7.4. In a second step 10 μL of the first dilution were added to […] potassium phosphate buffer and 100 μL internal standard solution to a final concentration of 0.8 μM. 100 μL of the final compound dilution were aliquoted into a 96 deep well plate. 12.5 μL liver microsomes were added to each well (0.5 mg/mL final protein concentration) and the samples preincubated for 5 min at 37° C. and 800 rpm agitation.
(§5) After the preincubation, 250 μL cold acetonitrile were added to the 0 min samples to prevent a reaction. Following this, 12.5 μL NADPH solution were added to all wells to start the incubation, with the exception of the 0 min and 30 min controls without cofactor, where the NADPH was substituted for phosphate buffer.
(§6) The incubations were stopped after 5, 10, 20 and 30 min by adding 250 μL cold acetonitrile to the individual wells.
(§7) The quenched samples were then centrifuged at 4000 g for 1 h at 4° C. 100 μL of the supernatant were transferred into 96 well plates for analysis.
(§8) The metabolic stability of each compound was determined by measurement of the change in LC-MS/MS peak area over time. Assay Explorer software was used to automatically calculate the slope k of the decline. The intrinsic clearance (Clint) of each compound was then calculated according to the formula:
(§9) Clint (μL/min/mg protein)=k1000/protein concentration.

[3] = Intrinsic clearance (Clint) in human liver microsomes; format: in vitro ADME; conditions: 0.5 mg/mL protein, NADPH, up to 30 min, first value of human/rat; for microsomal CLint at 0.8 μM: human, liver microsomes, pH 7.4, human liver microsomes; for Clint (human): human liver microsomes
Description: as §1, §2, §3, §4, §5, §6, §7, §8, §9

Emax [1] [%]	EC50 [1] [pM]	microsomal CLint at 0.8 μM [2] [µL/min/mg]	microsomal CLint at 0.8 μM [3] [µL/min/mg]	EC50 of cAMP production (% effect) [1]	Clint (rat) ([2]; rat liver microsomes) [μL/min/mg protein]	Clint (human) [3] [μL/min/mg protein]	EC50 of cAMP production (% effect) ([1]; 60 min)	Molecule
99	870	31	67					[2H]C([2H])(NC(=O)C[C@H]1S[C@@H](c2ccc(C#Cc3ccccc3)cc2)N(c2cccc(C(N)=O)c2)C1=O)C([2H])([2H])c1ccc(O)c(OC)c1 (single isomer, unassigned) [Compound 1]
97	300	31	181					[2H]c1c([2H])c([2H])c(C#Cc2ccc([C@@H]3S[C@H](CC(=O)NC([2H])([2H])C([2H])([2H])c4ccc(OC)c(OCC)c4)C(=O)N3c3cccc(C(N)=O)c3)cc2)c([2H])c1[2H] (single isomer, unassigned) [Compound 9]
103	113000	241	351					[2H]c1c([2H])c([2H])c(C#Cc2c([2H])c([2H])c([C@H]3N(c4cccc(C(N)=O)c4)C(=O)[C@@H](CC(=O)NC([2H])([2H])C([2H])([2H])c4ccc(OC([2H])([2H])[2H])c(OC([2H])([2H])[2H])c4)[S@@+]3[O-])c([2H])c2[2H])c([2H])c1[2H] (single isomer, unassigned) [Compound 21]
98	300	120	182					CCOc1cc(CCNC(=O)C[C@H]2S[C@@H](c3ccc(C#Cc4ccccc4)cc3)N(c3cccc(C(N)=O)c3)C2=O)ccc1OC [Reference compound, reference compound]
99	700	51				191		[2H]C([2H])(NC(=O)C[C@H]1S[C@@H](c2ccc(C#Cc3ccccc3)cc2)N(c2cccc(C(N)=O)c2)C1=O)C([2H])([2H])c1ccc(OC)c(OCC)c1 (single isomer, unassigned) [Compound 4]
96	700	56	208					[2H]C([2H])([2H])Oc1ccc(CCNC(=O)C[C@H]2S[C@@H](c3ccc(C#Cc4ccccc4)cc3)N(c3cccc(C(N)=O)c3)C2=O)cc1OCC (single isomer, unassigned) [Compound 6]

The remaining lines, values behind:

Molecule	Emax [1] [%]	EC50 [1] [pM]	microsomal CLint at 0.8 μM [2] [µL/min/mg]	microsomal CLint at 0.8 μM [3] [µL/min/mg]	EC50 of cAMP production (% effect) [1]	Clint (rat) ([2]; rat liver microsomes) [μL/min/mg protein]	Clint (human) [3] [μL/min/mg protein]	EC50 of cAMP production (% effect) ([1]; 60 min)
[2H]c1c([2H])c([C@@H]2S[C@H](CC(=O)NC([2H])([2H])C([2H])([2H])c3ccc(OC([2H])([2H])[2H])c(OCC)c3)C(=O)N2c2cccc(C(N)=O)c2)c([2H])c([2H])c1C#Cc1ccccc1 (single isomer, unassigned) [Compound 16]	100	700						
[2H]c1c([2H])c([2H])c(C#Cc2ccc([C@@H]3S[C@H](CC(=O)NC([2H])([2H])C([2H])([2H])c4ccc(O)c(OC)c4)C(=O)N3c3cccc(C(N)=O)c3)cc2)c([2H])c1[2H] (single isomer, unassigned) [Compound 11]	99	335000						
3-((2S,5R)-4-oxo-5-(2-oxo-2-((1,1,2,2-d4-2-(3-ethoxy-4-methoxy-d3-phenyl)ethyl)amino)ethyl)-2-(2,3,5,6-d4-4-(phenylethynyl)phenyl)thiazolidin-3-yl)benzamide [Compound 15]		600			(99) %			
[2H]C([2H])(NC(=O)C[C@H]1S[C@@H](c2ccc(C#Cc3ccccc3)cc2)N(c2cccc(C(N)=O)c2)C1=O)C([2H])([2H])c1ccc(OC)c(OCC)c1 (single isomer, unassigned) [Compound 14]		2000				95	492	(99) %
[2H]c1c([2H])c([2H])c(C#Cc2c([2H])c([2H])c([C@H]3N(c4cccc(C(N)=O)c4)C(=O)[C@@H](CC(=O)NC([2H])([2H])C([2H])([2H])c4ccc(OC([2H])([2H])[2H])c(OCC)c4)[S@@+]3[O-])c([2H])c2[2H])c([2H])c1[2H] (single isomer, unassigned) [Compound 20]	103	25000	18	35				
[2H]c1c([2H])c([C@@H]2S[C@H](CC(=O)NC([2H])([2H])C([2H])([2H])c3ccc(OC([2H])([2H])[2H])c(OC([2H])([2H])[2H])c3)C(=O)N2c2cccc(C(N)=O)c2)c([2H])c([2H])c1C#Cc1ccccc1 [Compound 17, 3-((2S,5R)-4-oxo-5-(2-oxo-2-((1,1,2,2-d4-2-(3,4-dimethoxy-d6-phenyl)ethyl)amino)ethyl)-2-(2,3,5,6-d4-4-(phenylethynyl)phenyl-d5)thiazolidin-3-yl)benzamide]	100	900						
[2H]c1c([2H])c([2H])c(C#Cc2ccc([C@@H]3S[C@H](CC(=O)NC([2H])([2H])C([2H])([2H])c4ccc(OC([2H])([2H])[2H])c(OC)c4)C(=O)N3c3cccc(C(N)=O)c3)cc2)c([2H])c1[2H] [Compound 13, 3-((2S,5R)-4-oxo-5-(2-oxo-2-((1,1,2,2-d4-2-(3-ethoxy-4-methox-d3-yphenyl)ethyl)amino)ethyl)-2-(4-((phenyl-d5)ethynyl)phenyl)thiazolidin-3-yl)benzamide]	97	1300						
[2H]c1c([2H])c([2H])c(C#Cc2ccc([C@@H]3S[C@H](CC(=O)NCCc4ccc(O)c(O)c4)C(=O)N3c3cccc(C(N)=O)c3)cc2)c([2H])c1[2H] [Compound 12, 3-((2S,5R)-5-(2-((3,4-dihydroxyphenethyl)amino)-2-oxoethyl)-4-oxo-2-(4-((2,3,4,5,6-phenyl-d5)ethynyl)phenyl)thiazolidin-3-yl)benzamide]	99	220000						
